Where two headings read alike, the source gives them in different places.
Tests used:
hTRPA1 [1] = target: T1, hTRPA1 (Homo sapiens, UniProt O75762, K186N); test: TRPA1 patch clamp (perforated patch, AITC-activated current); type: cell-based
T1 construct: expressed in transfected cells; host or cells: HEK293/TREx (Invitrogen), induced with tetracycline
From the text: Patch clamp experiments permit the detection of currents through the TRPA1 channel in the cell line described above. To permit recording of current at a stable level and prevent the “rundown” observed by other labs, it is necessary to use the perforated patch technique, which prevents dialysis of the cytoplasm with the pipette solution. In normal whole-cell patch clamp recordings, a glass electrode is brought into contact with a single cell and a high-resistance (gigaohm) seal is established with the cell membrane. The membrane is then ruptured to achieve the whole-cell configuration, permitting control of the voltage of the cell membrane and measurement of currents flowing across the membrane using the amplifier attached to the electrode and resulting in the replacement of cytoplasm with the pipette solution. In contrast, in the perforated patch mode, an antibiotic, amphotericin, is present in the pipette solution and diffuses into contact with the cell after the seal is achieved, over the course of several minutes. The amphotericin forms ion-permeable pores in the membrane under the pipette, permitting passage of some ions but maintaining most native cytosolic components. A perfusion system permits control of the extracellular solution, including the addition of blockers and activators of the current. The current can be activated by addition of 5 μM AITC to the solution. […] In some cases, cells were grown in low density overnight on glass coverslips. Patch clamp recordings were made in the whole-cell mode with a holding potential of −40 mV. Every 5 seconds, a voltage ramp was applied from −120 to +100 mV, 400 ms in duration. Currents elicited were quantified at −80 mV and +80 mV. […] The external solution consisted of 150 mM NaCl, 4.5 mM KCl, 3 mM MgCl2, 10 mM HEPES, […], 1 mM EGTA, pH 7.4. Upon addition of AITC, TRPA1 current was induced only in TRPA1-expressing cells and not in parental HEK293 TREx cells. Removal of the AITC stimulus causes most of the current to go away. Potential blockers were tested for ability to block both inward and outward currents in the continued presence of AITC.

hTRPA1 [2] = target: T1, hTRPA1; test: High throughput Ca2+ fluorescence (Fluo4) assay, AITC stimulation; type: cell-based
Summary of the method: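 Read-out is Fluo4 fluorescence, proportional to [Ca2+]i, over ~3 min after AITC challenge, following 2 min compound pre-exposure in HEK293/TREx cells induced with 1 μg/ml tetracycline. Dye: 1 μM, 60 min, room temperature.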

hERG = hERG (Homo sapiens, UniProt Q12809); test: hERG patch clamp (Qpatch) selectivity; conditions: for selectivity ratio: human, selective for TRPA1 over hERG
Chain of hERG (Q12809 whole entry): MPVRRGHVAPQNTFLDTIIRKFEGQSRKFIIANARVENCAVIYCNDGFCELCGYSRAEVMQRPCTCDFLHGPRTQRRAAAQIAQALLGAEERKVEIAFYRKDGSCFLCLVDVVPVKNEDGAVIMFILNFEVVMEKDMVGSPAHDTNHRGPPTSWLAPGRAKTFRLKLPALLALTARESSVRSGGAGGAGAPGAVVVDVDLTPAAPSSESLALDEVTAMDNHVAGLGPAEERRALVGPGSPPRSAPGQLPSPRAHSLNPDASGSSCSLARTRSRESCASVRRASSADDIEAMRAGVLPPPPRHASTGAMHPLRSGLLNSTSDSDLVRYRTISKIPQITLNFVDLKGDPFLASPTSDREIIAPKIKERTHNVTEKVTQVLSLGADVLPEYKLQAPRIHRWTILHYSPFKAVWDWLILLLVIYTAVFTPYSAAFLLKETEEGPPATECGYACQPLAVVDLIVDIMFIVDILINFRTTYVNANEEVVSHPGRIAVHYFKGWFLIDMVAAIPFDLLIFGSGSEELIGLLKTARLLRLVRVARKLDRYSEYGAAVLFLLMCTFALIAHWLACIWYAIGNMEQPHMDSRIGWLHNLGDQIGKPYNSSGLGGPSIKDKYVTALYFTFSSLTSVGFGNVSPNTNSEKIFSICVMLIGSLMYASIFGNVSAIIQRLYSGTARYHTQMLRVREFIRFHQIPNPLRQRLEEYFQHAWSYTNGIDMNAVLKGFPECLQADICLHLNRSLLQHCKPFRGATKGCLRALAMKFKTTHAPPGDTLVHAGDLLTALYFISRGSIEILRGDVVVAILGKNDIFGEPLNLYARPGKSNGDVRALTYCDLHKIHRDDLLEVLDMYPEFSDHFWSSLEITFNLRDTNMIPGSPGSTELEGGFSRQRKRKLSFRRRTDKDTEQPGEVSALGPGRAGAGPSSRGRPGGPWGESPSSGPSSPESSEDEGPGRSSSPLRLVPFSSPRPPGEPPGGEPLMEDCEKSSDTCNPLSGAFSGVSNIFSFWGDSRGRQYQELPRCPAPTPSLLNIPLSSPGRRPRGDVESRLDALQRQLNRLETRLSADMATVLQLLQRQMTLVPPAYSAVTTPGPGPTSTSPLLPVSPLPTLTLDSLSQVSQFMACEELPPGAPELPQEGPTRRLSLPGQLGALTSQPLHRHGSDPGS

hNaV1.2 = hNaV1.2 (Homo sapiens, UniProt Q99250); test: hNaV1.2 patch clamp (Qpatch) selectivity; type: cell-based
Chain of hNaV1.2 (Q99250 whole entry): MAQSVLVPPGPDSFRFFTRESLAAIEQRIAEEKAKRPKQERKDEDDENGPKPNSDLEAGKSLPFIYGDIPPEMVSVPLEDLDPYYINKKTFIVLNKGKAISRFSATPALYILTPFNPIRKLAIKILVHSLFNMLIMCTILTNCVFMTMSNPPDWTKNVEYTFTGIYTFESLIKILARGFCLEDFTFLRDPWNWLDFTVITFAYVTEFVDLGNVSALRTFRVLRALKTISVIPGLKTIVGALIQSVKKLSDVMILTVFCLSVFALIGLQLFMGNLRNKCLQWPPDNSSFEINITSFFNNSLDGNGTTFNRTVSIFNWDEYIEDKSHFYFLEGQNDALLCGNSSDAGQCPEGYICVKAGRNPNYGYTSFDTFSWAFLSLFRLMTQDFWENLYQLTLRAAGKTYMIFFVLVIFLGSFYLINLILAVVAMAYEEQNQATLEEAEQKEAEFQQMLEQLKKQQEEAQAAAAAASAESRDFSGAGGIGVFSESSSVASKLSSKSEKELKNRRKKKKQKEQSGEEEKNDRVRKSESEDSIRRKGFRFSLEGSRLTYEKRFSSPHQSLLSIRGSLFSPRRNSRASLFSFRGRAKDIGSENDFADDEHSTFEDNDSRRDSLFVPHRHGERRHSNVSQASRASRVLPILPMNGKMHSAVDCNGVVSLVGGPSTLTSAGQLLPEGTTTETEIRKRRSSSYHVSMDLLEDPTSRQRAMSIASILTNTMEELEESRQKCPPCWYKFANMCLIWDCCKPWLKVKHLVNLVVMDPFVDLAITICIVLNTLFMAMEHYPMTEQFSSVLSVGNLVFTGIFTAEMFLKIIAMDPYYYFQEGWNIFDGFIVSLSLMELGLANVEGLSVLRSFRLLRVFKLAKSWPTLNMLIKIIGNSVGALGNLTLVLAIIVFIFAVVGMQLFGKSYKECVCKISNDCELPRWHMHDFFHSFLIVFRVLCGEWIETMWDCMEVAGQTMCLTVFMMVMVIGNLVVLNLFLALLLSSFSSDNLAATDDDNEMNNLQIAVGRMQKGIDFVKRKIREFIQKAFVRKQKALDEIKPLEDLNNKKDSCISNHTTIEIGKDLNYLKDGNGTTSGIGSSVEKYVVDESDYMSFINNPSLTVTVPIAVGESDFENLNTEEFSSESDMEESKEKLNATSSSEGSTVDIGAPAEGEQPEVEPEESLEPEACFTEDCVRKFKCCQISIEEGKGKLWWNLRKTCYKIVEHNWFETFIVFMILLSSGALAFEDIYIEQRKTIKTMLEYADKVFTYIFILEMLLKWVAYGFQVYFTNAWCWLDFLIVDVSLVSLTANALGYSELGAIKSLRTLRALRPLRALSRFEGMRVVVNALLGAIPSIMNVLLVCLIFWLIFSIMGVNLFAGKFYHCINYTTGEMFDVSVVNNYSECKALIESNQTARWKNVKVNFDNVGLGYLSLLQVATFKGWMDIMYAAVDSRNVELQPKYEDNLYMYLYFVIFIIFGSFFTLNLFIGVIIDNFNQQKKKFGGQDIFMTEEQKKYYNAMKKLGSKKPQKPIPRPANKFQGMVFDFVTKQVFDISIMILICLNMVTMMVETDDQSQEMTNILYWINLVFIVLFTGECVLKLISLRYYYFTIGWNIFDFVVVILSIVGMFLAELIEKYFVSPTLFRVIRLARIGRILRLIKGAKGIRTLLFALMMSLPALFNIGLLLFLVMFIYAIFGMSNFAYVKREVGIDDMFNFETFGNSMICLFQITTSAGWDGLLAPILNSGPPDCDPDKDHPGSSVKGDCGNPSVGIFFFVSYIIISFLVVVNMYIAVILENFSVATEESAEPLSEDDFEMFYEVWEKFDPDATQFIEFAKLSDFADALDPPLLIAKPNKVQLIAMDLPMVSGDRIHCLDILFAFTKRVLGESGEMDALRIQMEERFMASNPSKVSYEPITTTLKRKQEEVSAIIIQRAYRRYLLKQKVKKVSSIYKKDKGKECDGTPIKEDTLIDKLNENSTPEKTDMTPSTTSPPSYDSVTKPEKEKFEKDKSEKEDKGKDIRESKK

hTRPV3 = target: T2, hTRPV3 (Homo sapiens, UniProt Q8NET8); test: hTRPV3 patch clamp selectivity; type: cell-based; conditions: Table 2
T2 sequence (Q8NET8 1-790): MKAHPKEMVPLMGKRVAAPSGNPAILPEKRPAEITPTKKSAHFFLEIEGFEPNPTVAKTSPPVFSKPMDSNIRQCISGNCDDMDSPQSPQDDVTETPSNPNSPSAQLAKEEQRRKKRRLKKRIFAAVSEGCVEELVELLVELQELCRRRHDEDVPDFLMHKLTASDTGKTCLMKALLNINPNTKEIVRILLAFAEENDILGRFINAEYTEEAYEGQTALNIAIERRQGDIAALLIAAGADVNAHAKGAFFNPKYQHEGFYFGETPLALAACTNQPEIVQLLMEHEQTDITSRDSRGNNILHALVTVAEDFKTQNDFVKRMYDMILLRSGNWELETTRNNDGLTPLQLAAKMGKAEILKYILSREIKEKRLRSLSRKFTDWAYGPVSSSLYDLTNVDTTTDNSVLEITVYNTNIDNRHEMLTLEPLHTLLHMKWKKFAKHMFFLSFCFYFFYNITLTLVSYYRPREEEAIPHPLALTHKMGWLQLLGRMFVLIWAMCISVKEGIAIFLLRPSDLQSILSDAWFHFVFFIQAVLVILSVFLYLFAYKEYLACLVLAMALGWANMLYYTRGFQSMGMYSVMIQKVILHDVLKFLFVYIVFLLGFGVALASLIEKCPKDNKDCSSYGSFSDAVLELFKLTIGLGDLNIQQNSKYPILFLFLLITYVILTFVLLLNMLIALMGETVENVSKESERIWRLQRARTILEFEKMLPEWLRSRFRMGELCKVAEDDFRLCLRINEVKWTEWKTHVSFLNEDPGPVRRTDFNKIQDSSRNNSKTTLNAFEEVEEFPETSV

hTRPV4 = hTRPV4 (Homo sapiens, UniProt Q9HBA0); test: hTRPV4 patch clamp selectivity; type: cell-based; conditions: Table 2
Chain of hTRPV4 (Q9HBA0 whole entry): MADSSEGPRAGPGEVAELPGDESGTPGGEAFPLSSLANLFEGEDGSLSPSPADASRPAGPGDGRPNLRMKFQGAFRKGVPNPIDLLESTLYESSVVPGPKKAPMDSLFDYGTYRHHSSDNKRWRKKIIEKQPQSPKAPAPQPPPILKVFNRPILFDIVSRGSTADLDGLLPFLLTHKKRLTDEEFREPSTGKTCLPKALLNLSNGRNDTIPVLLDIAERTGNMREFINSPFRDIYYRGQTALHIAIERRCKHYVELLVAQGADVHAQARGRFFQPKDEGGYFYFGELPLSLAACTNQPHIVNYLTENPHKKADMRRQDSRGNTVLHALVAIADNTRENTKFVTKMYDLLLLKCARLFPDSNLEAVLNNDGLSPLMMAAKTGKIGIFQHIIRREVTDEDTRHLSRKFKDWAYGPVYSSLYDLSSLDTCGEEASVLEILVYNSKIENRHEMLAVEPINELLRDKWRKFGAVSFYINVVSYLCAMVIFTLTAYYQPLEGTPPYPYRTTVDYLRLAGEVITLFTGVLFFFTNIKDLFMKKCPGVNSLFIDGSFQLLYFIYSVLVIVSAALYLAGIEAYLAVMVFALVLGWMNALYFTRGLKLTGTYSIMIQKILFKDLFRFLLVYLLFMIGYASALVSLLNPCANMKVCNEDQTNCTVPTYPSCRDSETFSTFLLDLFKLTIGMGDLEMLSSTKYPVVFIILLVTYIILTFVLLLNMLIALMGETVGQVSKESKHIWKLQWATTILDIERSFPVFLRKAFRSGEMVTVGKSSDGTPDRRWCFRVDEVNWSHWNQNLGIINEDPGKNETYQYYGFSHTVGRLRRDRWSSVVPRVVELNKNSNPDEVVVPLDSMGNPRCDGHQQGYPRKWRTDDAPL

[3] = Table 2, inward current, read-out: hTRPA1 Patch Inwd IC50
[4] = Table 2, read-out: hTRPA1 Fluor IC50
[5] = Table 2, read-out: hNaV1.2 IC50

T1 sequence (O75762 whole entry K186N): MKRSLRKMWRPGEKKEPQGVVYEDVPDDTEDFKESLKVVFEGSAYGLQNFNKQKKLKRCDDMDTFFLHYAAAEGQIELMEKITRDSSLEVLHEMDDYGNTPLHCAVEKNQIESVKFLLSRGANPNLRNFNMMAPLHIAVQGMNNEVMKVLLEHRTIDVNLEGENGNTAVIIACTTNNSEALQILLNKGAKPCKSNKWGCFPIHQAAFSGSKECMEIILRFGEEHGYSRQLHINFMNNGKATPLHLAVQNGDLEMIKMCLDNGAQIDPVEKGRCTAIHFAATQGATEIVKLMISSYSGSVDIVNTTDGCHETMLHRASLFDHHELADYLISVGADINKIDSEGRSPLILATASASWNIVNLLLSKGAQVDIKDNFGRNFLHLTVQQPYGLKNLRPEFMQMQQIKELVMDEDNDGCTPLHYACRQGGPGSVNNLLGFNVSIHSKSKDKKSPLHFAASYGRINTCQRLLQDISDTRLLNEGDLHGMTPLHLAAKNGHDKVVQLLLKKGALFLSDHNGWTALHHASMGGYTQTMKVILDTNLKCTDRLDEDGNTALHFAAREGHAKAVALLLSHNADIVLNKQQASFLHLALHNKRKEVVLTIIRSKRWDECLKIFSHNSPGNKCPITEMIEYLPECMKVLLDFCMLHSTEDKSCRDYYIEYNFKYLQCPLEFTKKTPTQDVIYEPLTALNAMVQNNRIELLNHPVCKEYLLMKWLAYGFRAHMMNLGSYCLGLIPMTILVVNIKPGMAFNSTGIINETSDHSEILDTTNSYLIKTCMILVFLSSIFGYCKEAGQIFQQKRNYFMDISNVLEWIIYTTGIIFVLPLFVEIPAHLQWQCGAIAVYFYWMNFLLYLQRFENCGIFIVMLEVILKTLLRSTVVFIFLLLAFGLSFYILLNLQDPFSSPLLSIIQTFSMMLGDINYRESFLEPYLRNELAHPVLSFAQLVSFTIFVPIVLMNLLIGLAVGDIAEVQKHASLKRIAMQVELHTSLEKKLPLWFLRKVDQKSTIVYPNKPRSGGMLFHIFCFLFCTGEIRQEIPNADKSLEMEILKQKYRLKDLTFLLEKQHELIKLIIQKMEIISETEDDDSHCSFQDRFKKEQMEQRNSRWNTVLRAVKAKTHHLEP

| Structure (SMILES) | IC50 (hTRPA1 [1]; [3]) [µM] | IC50 (hTRPA1 [2]; [4]) [µM] | IC50 (hERG; hERG IC50 (nM), Table 2) [nM] | selective for TRPA1 over NaV1.2 (hNaV1.2; Table 2) [fold] | IC50 (hNaV1.2; [5]) [µM] | selectivity ratio (hERG; Table 2) | other results |
| --- | --- | --- | --- | --- | --- | --- | --- |
| Cn1c(=O)c2c(ncn2CC(=O)Nc2ccc(Br)cc2)n(C)c1=O [Compound 202] | ≤ 5 | ≤ 5 | > 10000 |  |  |  | selective for TRPA1 over hERG (hERG; Table 2): ≥ 5 fold |
| CCC(C)c1ccc(NC(=O)Cn2cnc3c2c(=O)n(C)c(=O)n3C)cc1 (stereo not shown) [Compound 215] | ≤ 1 | ≤ 5 | ≥ 10000 | ≥ 55 | ≥ 30 | ≥ 25 |  |
| Cn1c(=O)c2c(ncn2CC(=O)Nc2ccc(Cl)c(Cl)c2)n(C)c1=O [Compound 217] | ≤ 1 | ≤ 10 | ≥ 20000 | ≥ 50 | ≥ 30 | ≥ 45 |  |
| Cn1c(=O)c2c(ncn2CC(=O)Nc2ccc(Br)cc2)n(C)c1=O [Compound 219] | ≤ 5 | ≤ 5 | ≥ 20000 | ≥ 25 | ≥ 30 |  | selective for TRPA1 over hERG (hERG; Table 2): ≥ 15 fold |
| Cn1c(=O)c2c(ncn2CC(=O)Nc2cccc(C(F)(F)F)c2)n(C)c1=O [Compound 226] | ≤ 10 | ≤ 5 | > 10000 | ≥ 5 | ≥ 30 | ≥ 2 |  |
| Cn1c(=O)c2c(ncn2CC(=O)Nc2nc(-c3ccc(Br)cc3)cs2)n(C)c1=O [Compound 232] | ≤ 0.5 | ≤ 1 | ≥ 30000 | ≥ 75 | ≥ 30 | ≥ 75 |  |
| Cn1c(=O)c2c(ncn2CC(=O)Nc2nc3ccccc3s2)n(C)c1=O [Compound 239] | ≤ 5 | ≤ 5 |  |  |  |  | selective for TRPA1 over TRPV3 (hTRPV3): ≥ 4 fold; IC50 (hTRPV3; read-out: hTRPV3 P1 inward IC50): ≤ 10 µM |
| CCc1ccc(-c2csc(NC(=O)Cn3cnc4c3c(=O)n(C)c(=O)n4C)n2)cc1 [Compound 271] | ≤ 0.5 | ≤ 5 | ≥ 30000 |  |  | ≥ 150 |  |
| CCOc1ccc(Oc2ccc(NC(=O)Cn3cnc4c3c(=O)n(C)c(=O)n4C)cc2)cc1 [Compound 284] | ≤ 0.5 | ≤ 5 | ≤ 5000 |  |  | ≥ 10 |  |
| Cn1c(=O)c2c(ncn2CC(=O)Nc2ccc3c(c2)OC2(CCCCC2)O3)n(C)c1=O [Compound 347] | ≤ 1 | ≤ 1 | ≥ 20000 |  |  | ≥ 45 | IC50 (hTRPV4): > 10 µM; selective for TRPA1 over TRPV4 (hTRPV4): ≥ 15 fold |
| CCOC(=O)C1=C(c2ccccc2)NC(=S)NC1c1cc(O)ccc1Br (stereo not shown) [drawing 49] |  |  |  |  |  |  | selective for TRPA1 over NaV1.2 (hNaV1.2; Table 1): ≥ 40 fold; IC50 (hNaV1.2; Table 1, read-out: hNaV1.2 Qpatch IC50): ≥ 30 µM; IC50 (hTRPA1 [1]; Table 1, read-out: hTRPA1 Patch IC50): ≤ 1 µM; IC50 (hTRPA1 [2]; Table 1, read-out: hTRPA1 Fluo4 IC50): ≤ 1 µM; IC50 (hERG; hERG Qpatch IC50 (nM), Table 1): ≥ 20000 nM; selectivity ratio (hERG; Table 1): ≥ 30 |

Source: patent US7671061B2, “Methods and compositions for treating pain” (Hydra Biosciences, Inc., priority 2005, dated 2010)
